Data as given in PubChem BioAssay AID200 (DTP/NCI, 2004).
Where “and” joins values, the source holds several entries; their conditions need not be identical. Equal entries are not always repeated. Toxic doses and inconclusive results are not listed.

System: B6C3F1 mice, B16 melanoma ip, median survival T/C
Assay: NCI In Vivo Anticancer Drug Screen. Data for tumor model B16 Melanoma (intraperitoneal) in B6C3F1 mice
Details: endpoint: median survival time, higher = longer survival
Experimental: The antitumor activity of compounds was measured in mice bearing transplantable tumors. Survival or tumor size were measured and the results are expressed as the measurement made in the treated group (T) divided by the measurement made in the vehicle treated control group (C). The tumor model used in this assay is B16 Melanoma (intraperitoneal) in B6C3F1 mice

[1] = dose: 50.0 mg/kg/injection, schedule: Q01DX009 (ip), vehicle: saline with Tween-80
[2] = dose: 100.0 mg/kg/injection, schedule: Q01DX009 (ip), vehicle: saline with Tween-80
[3] = dose: 200.0 mg/kg/injection, schedule: Q01DX009 (ip), vehicle: saline with Tween-80
[4] = dose: 12.5 mg/kg/injection, schedule: Q01DX009 (ip), vehicle: saline
[5] = dose: 25.0 mg/kg/injection, schedule: Q01DX009 (ip), vehicle: saline
[6] = dose: 50.0 mg/kg/injection, schedule: Q01DX009 (ip), vehicle: saline
[7] = dose: 12.5 mg/kg/injection, schedule: Q01DX009 (ip), vehicle: saline with Tween-80
[8] = dose: 25.0 mg/kg/injection, schedule: Q01DX009 (ip), vehicle: saline with Tween-80
[9] = dose: 400.0 mg/kg/injection, schedule: Q01DX009 (ip), vehicle: saline with Tween-80
[10] = dose: 6.25 mg/kg/injection, schedule: Q01DX009 (ip), vehicle: saline with Tween-80
[11] = dose: 100.0 mg/kg/injection, schedule: Q01DX009 (ip), vehicle: saline
[12] = dose: 200.0 mg/kg/injection, schedule: Q01DX009 (ip), vehicle: saline

With `C/C(=N\NC(=S)N1CCN(c2ccccn2)CC1)c1ccccn1` the T/C (dose: 6.25 mg/kg/injection, schedule: Q01DX009 (ip), vehicle: water) was 99 % of control, the T/C (dose: 12.5 mg/kg/injection, schedule: Q01DX009 (ip), vehicle: water) was 99 % of control and the T/C (dose: 25.0 mg/kg/injection, schedule: Q01DX009 (ip), vehicle: water) was 111 % of control.

`O=C(CCl)NC(Cc1ccccc1)C(=O)O` (stereo not given) was tested, and the T/C [1] was 88 % of control, the T/C [2] was 90 % of control and the T/C [3] was 90 % of control.

With `NNc1nncc2ccccc12` the T/C [4] was 93 % of control, the T/C [5] was 98 % of control and the T/C [6] was 93 % of control.

In the case of `CC(=O)Oc1c[nH]c(=O)[nH]c1=O`, the T/C (dose: 12.5 mg/kg/injection, schedule: Q01DX009 (ip), vehicle: distilled water + Tween-80) is reported as 99 % of control, the T/C [7] is reported as 97 % of control and the T/C (dose: 25.0 mg/kg/injection, schedule: Q01DX009 (ip), vehicle: distilled water + Tween-80) is reported as 103 % of control. For the same compound, the T/C [8] was 98 % of control, the T/C (dose: 50.0 mg/kg/injection, schedule: Q01DX009 (ip), vehicle: distilled water + Tween-80) was 103 % of control and the T/C [1] was 98 % of control. The T/C (dose: 100.0 mg/kg/injection, schedule: Q01DX009 (ip), vehicle: distilled water + Tween-80) was 102 % of control, the T/C [2] was 90 % of control and the T/C (dose: 200.0 mg/kg/injection, schedule: Q01DX009 (ip), vehicle: distilled water + Tween-80) was 98 % of control. For the same compound, the T/C [3] was 95 % of control, the T/C (dose: 400.0 mg/kg/injection, schedule: Q01DX009 (ip), vehicle: distilled water + Tween-80) was 92 % of control and the T/C [9] was 98 % of control.

In the case of `Cc1ccc(N)c(N)c1`, the T/C [8] is reported as 95 % of control, the T/C [1] is reported as 99 % of control and the T/C [2] is reported as 102 % of control. The T/C [3] was 104 % of control.

With `COC1=C(OC)C(=O)C(C/C=C(\C)CC/C=C(\C)CC/C=C(\C)CC/C=C(\C)CC/C=C(\C)CC/C=C(\C)CC/C=C(\C)CC/C=C(\C)CC/C=C(\C)CCC=C(C)C)=C(C)C1=O` the T/C [10] was 91 % of control, the T/C [7] was 97 % of control and 101 % of control and the T/C [8] was 93 % of control and 96 % of control. The T/C [1] was 97 % of control, the T/C [2] was 94 % of control and 98 % of control and the T/C [3] was 87 % of control and 90 % of control.

With `CSC1SCC2C(=O)N(C)C(C(C)C)C(=O)OCC(NC(=O)c3cnc4ccccc4n3)C(=O)NC(C)C(=O)N(C)C1C(=O)N(C)C(C(C)C)C(=O)OCC(NC(=O)c1cnc3ccccc3n1)C(=O)NC(C)C(=O)N2C` (stereo not given) the T/C (dose: 15.0 micrograms/kg/injection, schedule: Q01DX009 (ip), vehicle: saline with Tween-80) was 106 % of control, the T/C (dose: 30.0 micrograms/kg/injection, schedule: Q01DX009 (ip), vehicle: saline) was 176 % of control and the T/C (dose: 32.0 micrograms/kg/injection, schedule: Q01DX009 (ip), vehicle: saline) was 176 % of control. For the same compound, the T/C (dose: 60.0 micrograms/kg/injection, schedule: Q01DX009 (ip), vehicle: saline with Tween-80) was 121 % of control, the T/C (dose: 60.0 micrograms/kg/injection, schedule: Q01DX009 (ip), vehicle: saline) was 172 % of control and the T/C (dose: 64.0 micrograms/kg/injection, schedule: Q01DX009 (ip), vehicle: saline) was 176 % of control. For the same compound, the T/C (dose: 120.0 micrograms/kg/injection, schedule: Q01DX009 (ip), vehicle: saline) was 209 % of control, the T/C (dose: 128.0 micrograms/kg/injection, schedule: Q01DX009 (ip), vehicle: saline) was 187 % of control and the T/C (dose: 240.0 micrograms/kg/injection, schedule: Q01DX009 (ip), vehicle: saline) was 181 % of control. For the same compound, the T/C (dose: 480.0 micrograms/kg/injection, schedule: Q01DX009 (ip), vehicle: saline with Tween-80) was 170 % of control.

For `COc1cccc2c1C(=O)c1c(O)c3c(c(O)c1C2=O)C[C@@](O)(C(C)=O)C[C@@H]3OC1CC(N(C)Cc2ccccc2)C(O)C(C)O1` (stereo not given in full), the T/C (dose: 3.13 mg/kg/injection, schedule: Q01DX001 (ip), vehicle: distilled water + Tween-80) was 114 % of control and the T/C (dose: 12.5 mg/kg/injection, schedule: Q01DX001 (ip), vehicle: distilled water + Tween-80) was 122 % of control.

For `Cc1ccc(C(CCCl)OC(C)C)cc1` (stereo not given), the T/C [2] was 97 % of control, the T/C [3] was 94 % of control and the T/C [9] was 94 % of control.

In the case of `NC(=O)C1=CC2C3C=CC2(O)C(=O)OC3O1` (stereo not given), the T/C (dose: 3.75 mg/kg/injection, schedule: Q01DX009 (ip), vehicle: Klucel (hydroxypropylcellulose) (HPC)) is reported as 108 % of control and 123 % of control, the T/C (dose: 7.5 mg/kg/injection, schedule: Q01DX009 (ip), vehicle: Klucel (hydroxypropylcellulose) (HPC)) is reported as 118 % of control and 107 % of control and the T/C (dose: 15.0 mg/kg/injection, schedule: Q01DX009 (ip), vehicle: Klucel (hydroxypropylcellulose) (HPC)) is reported as 114 % of control and 123 % of control.

With `CNC(=O)OCc1c(COC(=O)NC)c(-c2ccc(F)cc2)n2c1CCC2` the T/C (dose: 0.78 mg/kg/injection, schedule: Q01DX009 (ip), vehicle: Klucel (hydroxypropylcellulose) (HPC)) was 114 % of control, the T/C (dose: 1.56 mg/kg/injection, schedule: Q01DX009 (ip), vehicle: Klucel (hydroxypropylcellulose) (HPC)) was 108 % of control and the T/C (dose: 3.12 mg/kg/injection, schedule: Q01DX009 (ip), vehicle: Klucel (hydroxypropylcellulose) (HPC)) was 122 % of control. For the same compound, the T/C (dose: 6.25 mg/kg/injection, schedule: Q01DX009 (ip), vehicle: Klucel (hydroxypropylcellulose) (HPC)) was 117 % of control.

For `N=c1nc2n(cc1F)[C@@H]1O[C@H](CO)[C@@H](O)[C@@H]1O2`, the T/C (dose: 25.0 mg/kg/injection, schedule: Q01DX009 (ip), vehicle: Klucel (hydroxypropylcellulose) (HPC)) was 111 % of control, the T/C [5] was 110 % of control and the T/C (dose: 50.0 mg/kg/injection, schedule: Q01DX009 (ip), vehicle: Klucel (hydroxypropylcellulose) (HPC)) was 121 % of control. For the same compound, the T/C [6] was 112 % of control, the T/C (dose: 100.0 mg/kg/injection, schedule: Q01DX009 (ip), vehicle: Klucel (hydroxypropylcellulose) (HPC)) was 110 % of control and the T/C [11] was 117 % of control and 97 % of control. For the same compound, the T/C (dose: 200.0 mg/kg/injection, schedule: Q01DX009 (ip), vehicle: Klucel (hydroxypropylcellulose) (HPC)) was 104 % of control, the T/C [12] was 124 % of control and 105 % of control and the T/C (dose: 400.0 mg/kg/injection, schedule: Q01DX009 (ip), vehicle: Klucel (hydroxypropylcellulose) (HPC)) was 117 % of control. The T/C (dose: 400.0 mg/kg/injection, schedule: Q01DX009 (ip), vehicle: saline) was 121 % of control.

In the case of `COC(OC(CO)C(O)S(=O)(=O)O)C(O)S(=O)(=O)O` (stereo not given), the T/C [4] is reported as 108 % of control, the T/C [5] is reported as 115 % of control and the T/C [11] is reported as 155 % of control.

In the case of `C1CN1P1(N2CC2)=NP(N2CC2)(N2CC2)=NP(N2CC2)(N2CC2)=N1`, the T/C (dose: 1.0 mg/kg/injection, schedule: Q01DX009 (ip), vehicle: Klucel (hydroxypropylcellulose) (HPC)) is reported as 116 % of control and 94 % of control, the T/C (dose: 1.0 mg/kg/injection, schedule: Q02DX009 (ip), vehicle: Klucel (hydroxypropylcellulose) (HPC)) is reported as 113 % of control and 114 % of control and the T/C (dose: 2.0 mg/kg/injection, schedule: Q01DX009 (ip), vehicle: Klucel (hydroxypropylcellulose) (HPC)) is reported as 119 % of control. For the same compound, the T/C (dose: 2.0 mg/kg/injection, schedule: Q02DX009 (ip), vehicle: Klucel (hydroxypropylcellulose) (HPC)) was 114 % of control and 106 % of control, the T/C (dose: 4.0 mg/kg/injection, schedule: Q02DX009 (ip), vehicle: Klucel (hydroxypropylcellulose) (HPC)) was 120 % of control and 122 % of control and the T/C (dose: 8.0 mg/kg/injection, schedule: Q01DX009 (ip), vehicle: Klucel (hydroxypropylcellulose) (HPC)) was 180 % of control. The T/C (dose: 8.0 mg/kg/injection, schedule: Q02DX009 (ip), vehicle: Klucel (hydroxypropylcellulose) (HPC)) was 117 % of control and the T/C (dose: 16.0 mg/kg/injection, schedule: Q02DX009 (ip), vehicle: Klucel (hydroxypropylcellulose) (HPC)) was 195 % of control.

In the case of `CC[C@H](CC[C@@H](C)[C@H]1CC[C@H]2[C@@H]3CC=C4C[C@@H](OC(C)=O)CC[C@]4(C)[C@H]3CC[C@]12C)C(C)C`, the T/C (dose: 12.5 mg/kg/injection, schedule: Q01DX009 (ip), vehicle: Klucel (hydroxypropylcellulose) (HPC)) is reported as 95 % of control.

In the case of `O=c1[nH]cnc2c1nnn2C1OC(CO)C(O)C1O` (stereo not given), the T/C [5] is reported as 96 % of control and 101 % of control, the T/C [6] is reported as 116 % of control and 92 % of control and the T/C [11] is reported as 104 % of control. For the same compound, the T/C [12] was 100 % of control.

In the case of `CC(=O)Nc1ccc(Nc2ccc(C(=C3C=CC(=[N+](C)CCC#N)C=C3)c3ccc(N(C)CCC#N)cc3)cc2)cc1`, the T/C (dose: 0.78 mg/kg/injection, schedule: Q01DX009 (ip), vehicle: saline with Tween-80) is reported as 105 % of control, the T/C (dose: 1.56 mg/kg/injection, schedule: Q01DX009 (ip), vehicle: saline with Tween-80) is reported as 108 % of control and the T/C (dose: 3.12 mg/kg/injection, schedule: Q01DX009 (ip), vehicle: saline with Tween-80) is reported as 105 % of control. The T/C [10] was 107 % of control, the T/C [7] was 120 % of control and the T/C [8] was 106 % of control.
